Values after ≈ are worked out from the molar mass of the structure shown.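 Cells were grown in 96-well plates and exposed to each compound for 48 hours at five concentrations; endpoints were interpolated linearly between bracketing concentrations, or set to the highest concentration if not reached. At the GI50, growth is halved. At the TGI there is no net growth.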
Tests used:
Test in all cases: NCI-60 cell line screen, 48 h
A549 NSCLC = tested on: A549 NSCLC
COLO 205 colon = tested on: COLO 205 colon
A498 renal = tested on: A498 renal
SF-268 CNS = tested on: SF-268 CNS
ACHN renal = tested on: ACHN renal
SNB-75 CNS = tested on: SNB-75 CNS
HCT-116 colon = tested on: HCT-116 colon
HL-60(TB) leukemia = tested on: HL-60(TB) leukemia
MOLT-4 leukemia = tested on: MOLT-4 leukemia
HCT-15 colon = tested on: HCT-15 colon
M14 melanoma = tested on: M14 melanoma
OVCAR-5 ovarian = tested on: OVCAR-5 ovarian
HOP-62 NSCLC = tested on: HOP-62 NSCLC

CC1(C)OCC(CO)(CO)CO1
TGI (A549 NSCLC): > 100 µM | TGI (COLO 205 colon): > 100 µM | TGI (A498 renal): > 100 µM | TGI (SF-268 CNS): > 100 µM | TGI (ACHN renal): > 100 µM | TGI (SNB-75 CNS): > 100 µM | TGI (HCT-116 colon): > 100 µM | TGI (HL-60(TB) leukemia): > 100 µM | TGI (MOLT-4 leukemia): > 100 µM | TGI (HCT-15 colon): > 100 µM | TGI (M14 melanoma): > 100 µM

Cc1cc(=O)oc2c1cc1ccc3cccc4ccc2c1c34
TGI (COLO 205 colon): > 100 µM | TGI (A498 renal): > 100 µM | TGI (SF-268 CNS): > 100 µM | TGI (ACHN renal): > 100 µM | TGI (SNB-75 CNS): 98.4 µM | TGI (HL-60(TB) leukemia): > 100 µM | TGI (MOLT-4 leukemia): > 100 µM | TGI (HCT-15 colon): > 100 µM | TGI (M14 melanoma): > 100 µM

O=C=C=P(c1ccccc1)(c1ccccc1)c1ccccc1
TGI (A549 NSCLC): > 100 µM | TGI (COLO 205 colon): 75.7 µM | TGI (SF-268 CNS): > 100 µM | TGI (ACHN renal): > 100 µM | TGI (OVCAR-5 ovarian): 92.8 µM | TGI (SNB-75 CNS): 83.6 µM | TGI (HCT-116 colon): > 100 µM | TGI (HL-60(TB) leukemia): 92.4 µM | TGI (MOLT-4 leukemia): > 100 µM | TGI (HCT-15 colon): > 100 µM | TGI (M14 melanoma): > 100 µM

ICC1CCCO1 (stereo not drawn)
TGI (A549 NSCLC): > 100 µM | TGI (COLO 205 colon): > 100 µM | TGI (A498 renal): > 100 µM | TGI (SF-268 CNS): > 100 µM | TGI (ACHN renal): > 100 µM | TGI (OVCAR-5 ovarian): > 100 µM | TGI (SNB-75 CNS): > 100 µM | TGI (HCT-116 colon): > 100 µM | TGI (HL-60(TB) leukemia): > 100 µM | TGI (MOLT-4 leukemia): > 100 µM | TGI (HCT-15 colon): > 100 µM | TGI (M14 melanoma): > 100 µM

O=Cc1cn(CCCCCCCCn2cc(C=O)c3ccccc32)c2ccccc12
TGI (A549 NSCLC): > 10 µM | TGI (COLO 205 colon): > 10 µM | TGI (A498 renal): 3.23 µM | TGI (SF-268 CNS): > 10 µM | TGI (ACHN renal): > 10 µM | TGI (OVCAR-5 ovarian): > 10 µM | TGI (HOP-62 NSCLC): > 10 µM | TGI (SNB-75 CNS): > 10 µM | TGI (HCT-116 colon): > 10 µM | TGI (HL-60(TB) leukemia): > 10 µM | TGI (MOLT-4 leukemia): > 10 µM | TGI (HCT-15 colon): > 10 µM | TGI (M14 melanoma): > 10 µM

CC(=O)[O-].CC(=O)[O-].O=C(N/N=C/c1cc(Cl)cc(Cl)c1[OH2+])c1ccncc1.[Mn+2]
TGI (A549 NSCLC): 79.7 µM | TGI (COLO 205 colon): 10.9 µM | TGI (A498 renal): 41 µM | TGI (SF-268 CNS): 27.2 µM | TGI (ACHN renal): 13.8 µM | TGI (OVCAR-5 ovarian): 8.49 µM | TGI (HOP-62 NSCLC): 68 µM | TGI (SNB-75 CNS): 30.2 µM | TGI (HCT-116 colon): 17.7 µM | TGI (HL-60(TB) leukemia): 1.12 µM | TGI (MOLT-4 leukemia): 0.84 µM | TGI (HCT-15 colon): 25.1 µM | TGI (M14 melanoma): 13.6 µM

Cc1cc(O)c2c(c1)C(=O)c1c(c(O)cc(O)c1-c1c(O)cc(O)c3c1C(=O)c1cc(C)cc(O)c1C3=O)C2=O
TGI (A549 NSCLC): 65.9 µM | TGI (COLO 205 colon): > 71.7 µM | TGI (A498 renal): 40.4 µM | TGI (SF-268 CNS): 75.4 µM | TGI (OVCAR-5 ovarian): 85 µM | TGI (HOP-62 NSCLC): 32.3 µM | TGI (SNB-75 CNS): 66.1 µM | TGI (HCT-116 colon): 33.7 µM | TGI (HL-60(TB) leukemia): 18.6 µM | TGI (MOLT-4 leukemia): 50.8 µM | TGI (HCT-15 colon): 38 µM

CC(C)c1oc(=O)cc2c1C(O)C1OC(=O)C3(C)C(O)C4OC4C2(C)C13 (stereo not drawn)
TGI (A549 NSCLC): 16.5 µM | TGI (COLO 205 colon): 4.18 µM | TGI (A498 renal): 1.41 µM | TGI (SF-268 CNS): 25 µM | TGI (OVCAR-5 ovarian): 27.2 µM | TGI (HOP-62 NSCLC): 9.27 µM | TGI (SNB-75 CNS): 7.92 µM | TGI (HCT-116 colon): 9.99 µM | TGI (HL-60(TB) leukemia): 1.22 µM | TGI (MOLT-4 leukemia): 2.13 µM | TGI (HCT-15 colon): 41.6 µM

Cc1nc2nc(C)n(CCN3CCOCC3)c(=O)c2c(-c2cccc([N+](=O)[O-])c2)c1C(=O)CCCCCCCCCCN1CCC(c2ccccc2)(c2ccccc2)CC1
GI50 (A549 NSCLC): 2.38 µg/mL (≈ 2.93 µM) | TGI (A549 NSCLC): 5.24 µg/mL | GI50 (SF-268 CNS): 2.26 µg/mL (≈ 2.78 µM) | TGI (SF-268 CNS): 4.26 µg/mL | GI50 (OVCAR-5 ovarian): 2.07 µg/mL (≈ 2.55 µM) | TGI (OVCAR-5 ovarian): 4.03 µg/mL | GI50 (HOP-62 NSCLC): 2.07 µg/mL (≈ 2.55 µM) | TGI (HOP-62 NSCLC): 4.06 µg/mL | GI50 (HCT-116 colon): 1.63 µg/mL (≈ 2 µM) | TGI (HCT-116 colon): 3.45 µg/mL | GI50 (HCT-15 colon): 1.32 µg/mL (≈ 1.62 µM) | TGI (HCT-15 colon): 3.17 µg/mL

CC(=O)OCC1(C)C(O)CCC2(C)C1CCC1CC3CC12CCC3(O)CO (stereo not drawn)
TGI (A549 NSCLC): > 100 µM | TGI (COLO 205 colon): > 100 µM | TGI (A498 renal): 8.59 µM | TGI (SF-268 CNS): > 100 µM | TGI (ACHN renal): > 100 µM | TGI (OVCAR-5 ovarian): > 100 µM | TGI (HOP-62 NSCLC): > 100 µM | TGI (SNB-75 CNS): > 100 µM | TGI (HCT-116 colon): > 100 µM | TGI (HL-60(TB) leukemia): > 100 µM | TGI (MOLT-4 leukemia): > 100 µM | TGI (HCT-15 colon): > 100 µM | TGI (M14 melanoma): > 100 µM

CCN(CC)CCNc1ccc2ncn3c4ccc(OC)cc4c(=O)c1c23
TGI (A549 NSCLC): 9.71 µM | TGI (COLO 205 colon): 15.5 µM | TGI (A498 renal): 21.5 µM | TGI (SF-268 CNS): 14.4 µM | TGI (ACHN renal): 19 µM | TGI (OVCAR-5 ovarian): 24 µM | TGI (HOP-62 NSCLC): 20.3 µM | TGI (SNB-75 CNS): 20.8 µM | TGI (HCT-116 colon): 13.5 µM | TGI (HL-60(TB) leukemia): 18.7 µM | TGI (MOLT-4 leukemia): 11 µM | TGI (HCT-15 colon): 15.1 µM | TGI (M14 melanoma): 11.7 µM

c1ccc(C2=NN2c2ccccc2)cc1
TGI (A549 NSCLC): > 100 µM | TGI (COLO 205 colon): > 100 µM | TGI (A498 renal): > 100 µM | TGI (SF-268 CNS): > 100 µM | TGI (ACHN renal): > 100 µM | TGI (OVCAR-5 ovarian): > 100 µM | TGI (HOP-62 NSCLC): > 100 µM | TGI (SNB-75 CNS): > 100 µM | TGI (MOLT-4 leukemia): > 100 µM | TGI (HCT-15 colon): > 100 µM | TGI (M14 melanoma): > 100 µM

C=C1CC(OC)(C(OC)C(=O)N[C@H]2OCO[C@H]3C2O[C@H](C[C@@H](COC)OC)C(C)(C)C3OC)O[C@H](C)[C@@H]1C (stereo partly drawn)
TGI (A549 NSCLC): 5.24 µM | TGI (COLO 205 colon): 4.72 µM | TGI (A498 renal): 2.58 µM | TGI (OVCAR-5 ovarian): 4 µM | TGI (HOP-62 NSCLC): 8.46 µM | TGI (SNB-75 CNS): 9.99 µM | TGI (HCT-116 colon): 5.77 µM | TGI (HL-60(TB) leukemia): 1.33 µM | TGI (MOLT-4 leukemia): 1.88 µM | TGI (HCT-15 colon): 8.25 µM

Cc1[nH]c(C)c(CN(C)C)c1CN(C)C
TGI (A549 NSCLC): > 100 µM | TGI (COLO 205 colon): > 100 µM | TGI (A498 renal): > 100 µM | TGI (SF-268 CNS): > 100 µM | TGI (ACHN renal): > 100 µM | TGI (OVCAR-5 ovarian): > 100 µM | TGI (HOP-62 NSCLC): > 100 µM | TGI (HCT-116 colon): > 100 µM | TGI (HCT-15 colon): > 100 µM | TGI (M14 melanoma): > 100 µM

CN1CCC2(c3ccccc3)CC(=O)/C(=C/c3ccc(Cl)c(Cl)c3)C1C2 (stereo not drawn)
TGI (A549 NSCLC): 10.9 µM | TGI (COLO 205 colon): 4.2 µM | TGI (A498 renal): 12.8 µM | TGI (SF-268 CNS): 3.73 µM | TGI (ACHN renal): 3.17 µM | TGI (OVCAR-5 ovarian): 6.37 µM | TGI (HOP-62 NSCLC): 12.3 µM | TGI (SNB-75 CNS): 11.2 µM | TGI (HCT-116 colon): > 21 µM | TGI (HL-60(TB) leukemia): 3.46 µM | TGI (MOLT-4 leukemia): 7.81 µM | TGI (HCT-15 colon): 4.59 µM | TGI (M14 melanoma): 8.59 µM

O=C(O)CCC(NC(=O)c1ccc(Nc2cnc3cc(C(F)(F)F)ccc3n2)cc1)C(=O)O (stereo not drawn)
TGI (A549 NSCLC): > 100 µM | TGI (COLO 205 colon): > 100 µM | TGI (A498 renal): > 100 µM | TGI (SF-268 CNS): > 100 µM | TGI (OVCAR-5 ovarian): > 100 µM | TGI (HOP-62 NSCLC): > 100 µM | TGI (SNB-75 CNS): > 100 µM | TGI (HCT-116 colon): > 100 µM | TGI (HL-60(TB) leukemia): > 100 µM | TGI (MOLT-4 leukemia): > 100 µM | TGI (HCT-15 colon): > 100 µM

CCOP(=O)(C/C=C/Cn1ncc(=O)[nH]c1=O)OCC
TGI (A549 NSCLC): > 100 µM | TGI (COLO 205 colon): > 100 µM | TGI (A498 renal): > 100 µM | TGI (SF-268 CNS): > 100 µM | TGI (ACHN renal): > 100 µM | TGI (OVCAR-5 ovarian): > 100 µM | TGI (HOP-62 NSCLC): > 100 µM | TGI (SNB-75 CNS): > 100 µM | TGI (HL-60(TB) leukemia): > 100 µM | TGI (MOLT-4 leukemia): > 100 µM | TGI (HCT-15 colon): > 100 µM | TGI (M14 melanoma): > 100 µM

CC1(c2ccccc2)O[C@@H]2C[C@H]3[C@@H]4CCC5=CC(=O)C=C[C@]5(C)[C@@]4(F)[C@@H](O)C[C@]3(C)[C@]2(C(=O)CO)O1 (stereo partly drawn)
TGI (A549 NSCLC): 29.2 µM | TGI (COLO 205 colon): 27.8 µM | TGI (A498 renal): 33.9 µM | TGI (SF-268 CNS): 49 µM | TGI (ACHN renal): 34.8 µM | TGI (OVCAR-5 ovarian): 33.1 µM | TGI (HOP-62 NSCLC): 29.2 µM | TGI (SNB-75 CNS): 44.8 µM | TGI (HCT-116 colon): 27.8 µM | TGI (HL-60(TB) leukemia): 39.4 µM | TGI (HCT-15 colon): 36 µM | TGI (M14 melanoma): 30.6 µM
